# pKi: −log10 of the molar value. The source made the active and inactive calls. The rule behind the calls is not given here.
# Experiments:
# [1] = biological target: Glutamate receptor ionotropic, kainate 1 (Rattus norvegicus, UniProt P22756); test: Displacement of [3H]SYM2081 from recombinant homomeric rat GluK1 receptor expressed in baculovirus infected Sf9 insect cell membranes
# [2] = biological target: Glutamate receptor ionotropic, kainate 2 (Rattus norvegicus, UniProt P42260); test: Displacement of [3H]SYM2081 from recombinant homomeric rat GluK2 receptor expressed in baculovirus infected Sf9 insect cell membranes
# [3] = biological target: Glutamate receptor ionotropic, kainate 3 (Rattus norvegicus, UniProt P42264); test: Displacement of [3H]SYM2081 from recombinant homomeric rat GluK3 receptor expressed in baculovirus infected Sf9 insect cell membranes
# Glutamate receptor 2 = Glutamate receptor 2 (Rattus norvegicus, UniProt P19491); test: Displacement of [3H]AMPA from recombinant homomeric rat GluA2 receptor expressed in baculovirus infected Sf9 insect cell membranes
# Rattus norvegicus [4] = species: Rattus norvegicus; test: Selectivity ratio of Ki for recombinant homomeric rat GluK3 expressed in Sf9 insect cells to Ki for recombinant homomeric rat GluK1 expressed in Sf9 insect cells
# Rattus norvegicus [5] = species: Rattus norvegicus; test: Selectivity ratio of Ki for recombinant homomeric rat GluK3 expressed in Sf9 insect cells to Ki for recombinant homomeric rat GluA2 expressed in Sf9 insect cells
# Rattus norvegicus [6] = test: Analgesic activity in Wistar Han rat assessed as inhibition of formalin-induced pain by measuring flexing duration in early phase at 2 mg/kg, ip administered 30 mins prior to formalin injection measured for first 15 mins after formalin injection; assay type: functional, organism-based
# Rattus norvegicus [7] = test: Analgesic activity in Wistar Han rat assessed as inhibition of formalin-induced pain by measuring time spent licking injected paw in early phase at 2 mg/kg, ip administered 30 mins prior to formalin injection measured for first 15 mins after formalin injection; assay type: functional, organism-based
# Rattus norvegicus [8] = test: Analgesic activity in Wistar Han rat assessed as inhibition of formalin-induced pain by measuring paw-jerk frequency in early phase at 2 mg/kg, ip administered 30 mins prior to formalin injection measured for first 15 mins after formalin injection; assay type: functional, organism-based
# Rattus norvegicus [9] = test: Analgesic activity in Wistar Han rat assessed as inhibition of formalin-induced pain by measuring locomotor activities at 2 mg/kg, ip administered 30 mins prior to formalin injection measured after 30 mins by formalin test; assay type: functional, organism-based
# Rattus norvegicus [10] = test: Analgesic activity in Wistar Han rat assessed as inhibition of formalin-induced pain by measuring paw-jerk frequency in early phase at 2 mg/kg, ip administered 30 mins prior to formalin injection measured for 15 to 60 mins after formalin injection; assay type: functional, organism-based
# [11] = Permeability of compound in rat brain at 100 uM perfused for 60 secs by LC-MS analysis; assay type: ADME, tissue-based; conditions: not told, other: brain perfusion, read-out: permeability
# Rattus norvegicus [12] = test: Analgesic activity in Wistar Han rat assessed as inhibition of formalin-induced pain by measuring flexing duration in late phase at 2 mg/kg, ip administered 30 mins prior to formalin injection measured for 15 to 60 mins after formalin injection
# Rattus norvegicus [13] = test: Analgesic activity in Wistar Han rat assessed as inhibition of formalin-induced pain by measuring time spent licking injected paw in late phase at 2 mg/kg, ip administered 30 mins prior to formalin injection measured for 15 to 60 mins after formalin injection
# Rattus norvegicus [14] = test: Analgesic activity in Wistar Han rat assessed as inhibition of formalin-induced pain by measuring locomotor activities at 2 mg/kg, ip administered 30 mins prior to formalin injection measured after 45 mins by formalin test; assay type: functional, organism-based
# Glutamate receptor 2, sequence (P19491 whole entry): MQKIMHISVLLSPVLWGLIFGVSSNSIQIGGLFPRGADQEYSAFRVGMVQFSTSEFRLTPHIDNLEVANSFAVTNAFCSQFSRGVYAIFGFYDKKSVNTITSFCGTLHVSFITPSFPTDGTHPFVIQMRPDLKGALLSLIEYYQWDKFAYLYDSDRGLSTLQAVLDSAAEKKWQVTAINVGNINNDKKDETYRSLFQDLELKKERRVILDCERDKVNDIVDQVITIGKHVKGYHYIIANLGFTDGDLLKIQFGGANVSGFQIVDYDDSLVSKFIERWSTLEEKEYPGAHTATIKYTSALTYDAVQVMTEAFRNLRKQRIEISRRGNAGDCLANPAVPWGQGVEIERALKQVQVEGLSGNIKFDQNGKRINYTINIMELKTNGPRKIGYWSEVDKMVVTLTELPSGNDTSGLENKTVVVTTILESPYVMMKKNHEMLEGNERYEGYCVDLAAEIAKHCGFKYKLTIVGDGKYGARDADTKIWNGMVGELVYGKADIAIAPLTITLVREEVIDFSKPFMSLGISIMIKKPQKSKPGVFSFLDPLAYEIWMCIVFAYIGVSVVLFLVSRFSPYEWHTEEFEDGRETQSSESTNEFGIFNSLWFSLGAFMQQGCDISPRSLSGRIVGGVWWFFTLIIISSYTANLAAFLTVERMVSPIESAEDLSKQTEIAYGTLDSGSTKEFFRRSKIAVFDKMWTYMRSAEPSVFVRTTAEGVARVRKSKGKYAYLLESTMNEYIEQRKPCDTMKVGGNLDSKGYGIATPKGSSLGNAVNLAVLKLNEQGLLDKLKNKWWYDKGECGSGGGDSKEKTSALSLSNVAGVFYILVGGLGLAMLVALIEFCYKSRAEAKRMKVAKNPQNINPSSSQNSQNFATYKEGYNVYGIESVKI
# Glutamate receptor ionotropic, kainate 1, sequence (P22756 whole entry): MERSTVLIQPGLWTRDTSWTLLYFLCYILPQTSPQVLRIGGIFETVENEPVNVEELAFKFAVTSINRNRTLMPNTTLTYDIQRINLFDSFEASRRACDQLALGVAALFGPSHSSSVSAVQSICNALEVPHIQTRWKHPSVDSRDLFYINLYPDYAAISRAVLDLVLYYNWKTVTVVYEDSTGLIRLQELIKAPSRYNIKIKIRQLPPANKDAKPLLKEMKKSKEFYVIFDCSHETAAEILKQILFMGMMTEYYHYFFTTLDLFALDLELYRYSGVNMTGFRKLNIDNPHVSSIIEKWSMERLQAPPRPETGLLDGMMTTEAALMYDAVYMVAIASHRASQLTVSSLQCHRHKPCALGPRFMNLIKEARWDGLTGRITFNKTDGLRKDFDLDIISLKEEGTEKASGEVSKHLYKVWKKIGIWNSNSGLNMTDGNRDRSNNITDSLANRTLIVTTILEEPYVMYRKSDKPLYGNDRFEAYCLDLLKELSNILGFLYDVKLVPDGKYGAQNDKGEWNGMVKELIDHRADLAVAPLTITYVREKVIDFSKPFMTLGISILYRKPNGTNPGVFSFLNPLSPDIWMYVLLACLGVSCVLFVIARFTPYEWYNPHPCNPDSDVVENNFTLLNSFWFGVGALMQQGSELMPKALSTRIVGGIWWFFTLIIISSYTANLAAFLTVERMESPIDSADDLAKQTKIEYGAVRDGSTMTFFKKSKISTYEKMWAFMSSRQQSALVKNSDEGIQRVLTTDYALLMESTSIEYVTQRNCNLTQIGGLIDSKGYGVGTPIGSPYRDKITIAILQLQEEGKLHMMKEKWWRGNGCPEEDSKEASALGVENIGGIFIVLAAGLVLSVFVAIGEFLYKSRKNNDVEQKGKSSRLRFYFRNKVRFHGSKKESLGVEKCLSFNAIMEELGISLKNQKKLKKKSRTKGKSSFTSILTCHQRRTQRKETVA
# Glutamate receptor ionotropic, kainate 2, sequence (P42260 whole entry): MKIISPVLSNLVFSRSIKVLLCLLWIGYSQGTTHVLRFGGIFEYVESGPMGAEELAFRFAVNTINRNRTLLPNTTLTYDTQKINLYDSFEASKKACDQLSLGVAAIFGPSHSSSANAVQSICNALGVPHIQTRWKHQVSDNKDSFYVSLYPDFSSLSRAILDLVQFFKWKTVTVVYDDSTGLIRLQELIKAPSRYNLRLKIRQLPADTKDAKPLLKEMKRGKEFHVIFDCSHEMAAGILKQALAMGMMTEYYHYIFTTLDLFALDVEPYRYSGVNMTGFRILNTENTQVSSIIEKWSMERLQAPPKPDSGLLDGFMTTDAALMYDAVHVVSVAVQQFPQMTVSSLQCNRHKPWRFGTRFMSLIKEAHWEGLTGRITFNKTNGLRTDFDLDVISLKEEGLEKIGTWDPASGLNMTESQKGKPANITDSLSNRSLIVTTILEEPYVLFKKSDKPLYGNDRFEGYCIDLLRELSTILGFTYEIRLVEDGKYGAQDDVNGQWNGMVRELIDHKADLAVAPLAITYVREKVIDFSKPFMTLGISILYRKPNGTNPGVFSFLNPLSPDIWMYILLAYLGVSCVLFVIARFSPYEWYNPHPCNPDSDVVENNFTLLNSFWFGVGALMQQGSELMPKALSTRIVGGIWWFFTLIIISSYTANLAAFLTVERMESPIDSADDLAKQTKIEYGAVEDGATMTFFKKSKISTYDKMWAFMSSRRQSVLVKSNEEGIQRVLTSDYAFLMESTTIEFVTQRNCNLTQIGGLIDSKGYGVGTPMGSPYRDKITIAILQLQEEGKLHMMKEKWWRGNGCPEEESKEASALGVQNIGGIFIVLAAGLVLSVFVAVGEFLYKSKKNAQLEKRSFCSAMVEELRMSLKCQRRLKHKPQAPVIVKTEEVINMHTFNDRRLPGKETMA
# Glutamate receptor ionotropic, kainate 3, sequence (P42264 whole entry): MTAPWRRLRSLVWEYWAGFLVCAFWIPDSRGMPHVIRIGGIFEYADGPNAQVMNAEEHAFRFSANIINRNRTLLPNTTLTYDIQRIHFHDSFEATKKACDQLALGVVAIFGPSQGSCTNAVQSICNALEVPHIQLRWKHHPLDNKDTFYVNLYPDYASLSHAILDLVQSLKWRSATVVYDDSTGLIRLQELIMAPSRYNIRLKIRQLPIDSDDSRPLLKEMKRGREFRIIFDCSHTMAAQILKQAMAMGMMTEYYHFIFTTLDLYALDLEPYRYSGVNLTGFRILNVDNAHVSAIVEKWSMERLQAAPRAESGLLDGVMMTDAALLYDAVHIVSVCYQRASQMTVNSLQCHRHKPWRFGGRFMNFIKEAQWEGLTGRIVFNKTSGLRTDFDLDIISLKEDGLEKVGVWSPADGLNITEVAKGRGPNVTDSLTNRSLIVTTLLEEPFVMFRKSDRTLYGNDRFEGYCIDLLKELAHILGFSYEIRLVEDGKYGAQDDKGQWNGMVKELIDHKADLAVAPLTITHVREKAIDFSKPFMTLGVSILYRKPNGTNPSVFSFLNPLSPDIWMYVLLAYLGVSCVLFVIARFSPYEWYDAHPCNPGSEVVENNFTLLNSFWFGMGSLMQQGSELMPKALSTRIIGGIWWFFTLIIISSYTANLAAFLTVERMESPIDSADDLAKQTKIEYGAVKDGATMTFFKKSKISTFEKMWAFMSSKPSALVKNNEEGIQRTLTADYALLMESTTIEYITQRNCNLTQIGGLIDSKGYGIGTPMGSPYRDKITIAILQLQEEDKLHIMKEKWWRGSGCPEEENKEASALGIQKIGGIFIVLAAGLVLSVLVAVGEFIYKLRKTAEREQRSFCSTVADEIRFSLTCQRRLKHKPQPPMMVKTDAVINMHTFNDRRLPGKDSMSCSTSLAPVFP
"Papp at 1 min, 100 µM [11]",SMILES,pKi [1],pKi [2],pKi [3],pKi (Glutamate receptor 2),Ratio Ki (Rattus norvegicus [4]),Ratio Ki (Rattus norvegicus [5]),Activity (Rattus norvegicus [6]),Activity (Rattus norvegicus [7]),Activity (Rattus norvegicus [8]),Activity (Rattus norvegicus [9]),Activity (Rattus norvegicus [10]),Activity (Rattus norvegicus [12]),Activity (Rattus norvegicus [13]),Activity (Rattus norvegicus [14])
,N[C@@H](Cn1c2c(c(=O)[nH]c1=O)COC2)C(=O)O,6.23,< 3.00,3.95,,,,,,,,,,,
,N[C@@H](Cn1c(=O)n(Cc2nnc(O)o2)c(=O)c2cscc21)C(=O)O,4.44,< 3.00,4.00,< 4.00,> 3,,,,,,,,,
,CN1Cc2c(n(C[C@H](N)C(=O)O)c(=O)[nH]c2=O)C1,6.45,< 3.00,5.67,5.70,6,1,,,,,,,,
,N[C@@H](Cn1c2c(c(=O)[nH]c1=O)CCC2)C(=O)O,,< 3.00,,,,,,,,,,,,
0.59 ×10⁻⁶ cm/s,N[C@@H](Cn1c(=O)n(Cc2ccsc2C(=O)O)c(=O)c2cscc21)C(=O)O,,,,,,,Active,Active,Active,Active,Active,Active,Active,
,N[C@@H](Cn1c(=O)[nH]c(=O)c2cscc21)C(=O)O,,,,,,,Active,Active,Active,Active,Active,Active,Active,Active
,N[C@@H](Cn1c2c(c(=O)[nH]c1=O)CNC2)C(=O)O,6.06,< 3.00,4.74,5.63,21,8,,,,,,,,

# Reference: ChEMBL document CHEMBL4043288, “( S)-2-Amino-3-(5-methyl-3-hydroxyisoxazol-4-yl)propanoic Acid (AMPA) and Kainate Receptor Ligands: Further Exploration of Bioisosteric Replacements and Structural and Biological Investigation” (J Med Chem, 2018)
